# Laboratory results taken from patent publication US7439251B2, “Methods and compositions for treatment of central and peripheral nervous system disorders and novel compounds useful therefor” (Israel Institute for Biological Research, priority 2002, dated 2008).
# “Also recorded” adds a separate entry of the source. Where two headings read alike, the source gives them in different places.
# Assays:
# [1] = rat, in vivo, po
# Experimental: This calculation was based on the brain weight (2 gr) vs. total plasma volume (14 ml).
# [2] = Chronic oral toxicity up to 13 weeks, rat; format: in vivo, Wistar rat
# β-catenin = β-catenin levels in rat hippocampal neurons; format: cell-based; settings: 100 μM; Aβ1-40 5 μM
# Experimental: (§1) This study was performed in rat hippocampal primary cell cultures using the methods described by Garrido J L et al. (FASEB J 2002; 16:1982).
# [3] = pKa and free base fraction at CSF pH; settings: pH 7.35 (CSF), calculated from pKa
# Experimental: For such compounds at the relevant pH of 7.35, only 2.2% are in non-ionized form. […] This calculation was based on the brain weight (2 gr) vs. total plasma volume (14 ml).
# [4] = Chronic oral toxicity up to 13 weeks, dog
# Aβ / γ-secretase = experiment: Aβ levels in primary rat cortical neurons infected with Semliki Forest virus encoding human APP695, C99 or C111; format: cell-based
# Experimental: The mechanism of Aβ modulation was tested using C99 (and C111) that are truncated constructs generated from APP. Unlike APP, C99/C111 are direct substrates for γ-secretase. With both constructs it is possible to directly assay for γ-secretase activity, while with APP this is not possible. Both constructs are—as compared to APP—inefficient substrates for […]. Synergistc effects were also evaluated with CDX (methyl-β-cyclodextrin), an agent which extracts cholesterol from the plasma membrane. CDX inhibits also Aβ production CDX-treated cells were treated in addition to the respective muscarinic agonist for 5 min to reduce the cholesterol content.
# [5] = system: Adrenergic α1A, α1B, α2A, α2B, α2C, β1, β2; BZD peripheral; Clozapine; Dopamine D1, D2, D3; GABA A; Glutamate sites; Glycine; Histamine H1-H3; Nicotinic …; experiment: Selectivity binding panel for AF267B
# [6] = target: muscarinic receptors (QNB, rat cerebellar membranes) (Rattus norvegicus, UniProt P10980); settings: read-out: QNB binding, Ki
# rat hippocampal neurons = experiment: Survival, morphology and apoptosis of rat hippocampal neurons exposed to Aβ; format: cell-based
# Experimental: as §1
# ApoE = ApoE synthesis and secretion in rat primary type 1 astrocytes; format: cell-based; settings: 96 hrs; 0.1 nM
# Experimental: Primary cultures of type 1 astrocytes were derived from the cortex of Sprague Dawley rats. The compounds tested were dissolved in the culture media and added to cells for 24, 48, 72 and 96 hrs. Media was then removed and kept frozen until ApoE protein levels were evaluated by immunoblot analysis as described in Poirier et al Neuroscience 55: 81-90 (1993).
# human M5 receptor [7] = target: T1, human M5 receptor (Homo sapiens, UniProt P08912); experiment: PI hydrolysis, human M5; format: cell-based
# T1 construct: expressed in transfected cells
# human M5 receptor [8] = target: T1, human M5 receptor; experiment: Arachidonic acid (AA) release, human M5; format: cell-based
# M2 mAChR = M2 mAChR (Homo sapiens, UniProt P08172); experiment: Intracellular Ca ions in modified cell cultures, M2; format: cell-based; settings: 10^−9-10^−3M
# [9] = system: adenosine A1, A2A, A3; alpha 1, alpha 2, beta 1; AT1; BZD; B2; CCKA; D1, D2S; ETA; GABA; GAL2; IL-8B; CCR1; H1, H2; MC4; ML1; NK2, NK3; Y1, Y2; NT1; opiate …; experiment: Selectivity binding panel for AF292; settings: 10 μM
# [10] = system: Isolated Guinea Pig Right Atrium; experiment: Isolated guinea pig right atrium
# Experimental: • 1. Astemizole (human ether-a-go-go related gene (HERG) Channel) Binding Assay. […] Isolated Guinea Pig Right Atrium (atrial fibrillation). […] Effects of AF292 (dose 5 mg/kg orally) on cardiac electrophysiological, cardio-haemodynamic in instrumented, awake dogs. Healthy trained and chronically instrumented female Beagle dogs of varying age and ranging in body weight from 9.4 to 12 kg, were used for recording of the cardiovascular parameters: heart rate, diastolic and systolic blood pressure, pressure rate product, LV dp/dt max, LV dp/dt max/pd, LV dp/dt min, cardiac output, stroke volume, systemic vascular resistance and the ECG parameters (PQ-, QRS-, QT-, QTcBazett—(QTcB), QTcFridericia—(QTcF) and QTcVan de Water—(QTcVdW) interval duration and QT-dispersion. During the last 18 hours prior to the experiments, the dogs had no access to food. Water was available ad libitum. At the beginning of each experiment, control values of the various parameters were recorded for at least 30 min. Thereafter, 5 mg/kg of AF292 (n=4) or the corresponding volume of the solvent (n=4) was administered orally by gavage. The various haemodynamic parameters were recorded continuously for 4 hours thereafter.
# CPY2D6 = CPY2D6 (Homo sapiens, UniProt P10635); experiment: P450 inhibition, microtiter plate; format: in vitro ADME; settings: up to 10 μM
# Experimental: (§2) Cytochrome P450 activity can be an indicator for potential drug-drug interactions. AF292 was evaluated in a microtiter plate assay for P450 inhibition.
# CYP2C19 = CYP2C19 (Homo sapiens, UniProt P33261); experiment: P450 inhibition, microtiter plate; format: in vitro ADME; settings: up to 10 μM
# Experimental: as §2
# CYP2C9 = CYP2C9 (Homo sapiens, UniProt P11712); experiment: P450 inhibition, microtiter plate; format: in vitro ADME; settings: up to 10 μM
# Experimental: as §2
# CYP3A4 = CYP3A4 (Homo sapiens, UniProt P08684); experiment: P450 inhibition, microtiter plate; format: in vitro ADME; settings: up to 10 μM
# Experimental: as §2
# CYP1A2 = CYP1A2 (Homo sapiens, UniProt P05177); experiment: P450 inhibition, microtiter plate; format: in vitro ADME; settings: up to 10 μM
# Experimental: as §2
# human M3 receptor = target: T2, human M3 receptor (Homo sapiens, UniProt P20309); experiment: Arachidonic acid (AA) release, human M3; format: cell-based
# T2 construct: expressed in transfected cells
# T2 sequence (P20309 whole entry): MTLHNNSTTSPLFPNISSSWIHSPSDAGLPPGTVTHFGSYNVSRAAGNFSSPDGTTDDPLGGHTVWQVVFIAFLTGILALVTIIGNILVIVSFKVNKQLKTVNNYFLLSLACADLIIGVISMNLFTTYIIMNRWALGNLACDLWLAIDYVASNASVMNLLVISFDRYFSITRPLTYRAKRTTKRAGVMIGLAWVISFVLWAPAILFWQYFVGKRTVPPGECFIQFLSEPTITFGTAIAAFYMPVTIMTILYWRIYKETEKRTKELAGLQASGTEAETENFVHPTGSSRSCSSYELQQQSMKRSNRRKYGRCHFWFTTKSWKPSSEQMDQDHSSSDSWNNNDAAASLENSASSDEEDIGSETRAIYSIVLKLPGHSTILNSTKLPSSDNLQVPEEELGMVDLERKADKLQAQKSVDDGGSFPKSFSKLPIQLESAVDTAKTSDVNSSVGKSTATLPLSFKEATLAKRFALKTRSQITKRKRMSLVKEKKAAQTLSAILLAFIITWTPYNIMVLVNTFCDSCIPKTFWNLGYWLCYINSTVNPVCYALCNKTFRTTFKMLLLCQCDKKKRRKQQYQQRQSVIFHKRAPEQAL
# T1 sequence (P08912 whole entry): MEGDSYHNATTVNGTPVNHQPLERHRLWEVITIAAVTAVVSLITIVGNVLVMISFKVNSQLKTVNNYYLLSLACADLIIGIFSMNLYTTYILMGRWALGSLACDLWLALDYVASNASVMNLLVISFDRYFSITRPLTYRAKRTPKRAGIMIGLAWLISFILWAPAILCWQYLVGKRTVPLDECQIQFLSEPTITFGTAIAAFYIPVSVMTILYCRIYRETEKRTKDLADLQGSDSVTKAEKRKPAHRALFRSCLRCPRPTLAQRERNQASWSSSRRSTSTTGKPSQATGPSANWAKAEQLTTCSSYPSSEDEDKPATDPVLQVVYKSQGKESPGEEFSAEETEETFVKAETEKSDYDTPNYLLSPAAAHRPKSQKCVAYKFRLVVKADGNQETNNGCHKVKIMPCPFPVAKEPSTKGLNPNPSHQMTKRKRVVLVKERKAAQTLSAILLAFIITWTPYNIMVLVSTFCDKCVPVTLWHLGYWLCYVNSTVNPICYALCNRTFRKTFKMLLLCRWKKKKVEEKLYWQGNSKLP
# Sequence of M2 mAChR (P08172 whole entry): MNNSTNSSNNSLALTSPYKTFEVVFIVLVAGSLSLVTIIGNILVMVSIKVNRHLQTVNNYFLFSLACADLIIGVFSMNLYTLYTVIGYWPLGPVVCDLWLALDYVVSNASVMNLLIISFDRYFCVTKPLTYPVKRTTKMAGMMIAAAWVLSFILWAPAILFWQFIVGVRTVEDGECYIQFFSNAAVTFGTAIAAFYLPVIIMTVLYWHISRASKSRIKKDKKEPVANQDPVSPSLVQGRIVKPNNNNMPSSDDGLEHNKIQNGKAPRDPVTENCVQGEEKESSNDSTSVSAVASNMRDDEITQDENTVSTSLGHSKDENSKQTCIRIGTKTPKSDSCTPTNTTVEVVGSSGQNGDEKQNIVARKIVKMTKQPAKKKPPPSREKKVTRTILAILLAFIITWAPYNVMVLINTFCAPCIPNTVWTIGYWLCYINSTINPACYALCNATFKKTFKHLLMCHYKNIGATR
# Sequence of CYP2C19 (P33261 whole entry): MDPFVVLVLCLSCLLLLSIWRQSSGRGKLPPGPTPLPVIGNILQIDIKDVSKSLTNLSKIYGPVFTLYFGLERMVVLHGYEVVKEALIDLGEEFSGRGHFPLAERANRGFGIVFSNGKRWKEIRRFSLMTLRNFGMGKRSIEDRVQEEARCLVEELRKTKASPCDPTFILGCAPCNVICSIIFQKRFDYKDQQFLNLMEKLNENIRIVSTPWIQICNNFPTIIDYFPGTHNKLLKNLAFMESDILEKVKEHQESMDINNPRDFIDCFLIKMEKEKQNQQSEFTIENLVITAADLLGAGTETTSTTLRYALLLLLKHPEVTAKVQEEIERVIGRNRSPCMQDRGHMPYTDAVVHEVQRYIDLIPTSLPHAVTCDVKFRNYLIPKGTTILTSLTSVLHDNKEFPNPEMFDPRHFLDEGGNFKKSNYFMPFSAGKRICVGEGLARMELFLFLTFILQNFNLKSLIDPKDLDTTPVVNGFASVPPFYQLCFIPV
# Sequence of CPY2D6 (P10635 whole entry): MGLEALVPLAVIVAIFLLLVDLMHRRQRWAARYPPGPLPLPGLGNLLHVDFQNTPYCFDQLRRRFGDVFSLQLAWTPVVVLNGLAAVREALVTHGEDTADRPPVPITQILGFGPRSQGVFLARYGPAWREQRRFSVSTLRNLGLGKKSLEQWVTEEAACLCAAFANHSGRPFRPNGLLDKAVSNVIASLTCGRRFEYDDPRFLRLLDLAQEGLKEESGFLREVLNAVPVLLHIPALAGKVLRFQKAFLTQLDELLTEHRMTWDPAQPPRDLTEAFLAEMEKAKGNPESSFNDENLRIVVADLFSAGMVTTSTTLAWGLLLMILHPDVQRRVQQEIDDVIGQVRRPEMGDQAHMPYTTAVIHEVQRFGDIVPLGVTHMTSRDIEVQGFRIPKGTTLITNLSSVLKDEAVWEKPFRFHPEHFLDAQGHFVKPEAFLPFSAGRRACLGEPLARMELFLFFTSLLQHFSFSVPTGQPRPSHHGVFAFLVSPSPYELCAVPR
# Sequence of muscarinic receptors (QNB, rat cerebellar membranes) (P10980 whole entry): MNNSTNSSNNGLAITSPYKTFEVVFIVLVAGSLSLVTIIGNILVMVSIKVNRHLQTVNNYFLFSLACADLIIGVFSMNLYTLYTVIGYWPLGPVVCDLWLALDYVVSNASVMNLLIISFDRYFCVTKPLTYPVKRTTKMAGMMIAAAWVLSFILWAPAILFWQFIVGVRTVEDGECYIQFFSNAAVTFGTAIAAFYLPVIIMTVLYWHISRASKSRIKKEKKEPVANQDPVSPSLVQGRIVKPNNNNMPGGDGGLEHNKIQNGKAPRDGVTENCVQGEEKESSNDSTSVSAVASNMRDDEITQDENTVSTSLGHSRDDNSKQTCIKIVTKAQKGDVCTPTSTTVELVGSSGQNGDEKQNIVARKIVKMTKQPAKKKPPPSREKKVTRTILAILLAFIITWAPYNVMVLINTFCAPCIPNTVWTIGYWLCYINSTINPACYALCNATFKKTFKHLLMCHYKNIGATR
# Sequence of CYP3A4 (P08684 whole entry): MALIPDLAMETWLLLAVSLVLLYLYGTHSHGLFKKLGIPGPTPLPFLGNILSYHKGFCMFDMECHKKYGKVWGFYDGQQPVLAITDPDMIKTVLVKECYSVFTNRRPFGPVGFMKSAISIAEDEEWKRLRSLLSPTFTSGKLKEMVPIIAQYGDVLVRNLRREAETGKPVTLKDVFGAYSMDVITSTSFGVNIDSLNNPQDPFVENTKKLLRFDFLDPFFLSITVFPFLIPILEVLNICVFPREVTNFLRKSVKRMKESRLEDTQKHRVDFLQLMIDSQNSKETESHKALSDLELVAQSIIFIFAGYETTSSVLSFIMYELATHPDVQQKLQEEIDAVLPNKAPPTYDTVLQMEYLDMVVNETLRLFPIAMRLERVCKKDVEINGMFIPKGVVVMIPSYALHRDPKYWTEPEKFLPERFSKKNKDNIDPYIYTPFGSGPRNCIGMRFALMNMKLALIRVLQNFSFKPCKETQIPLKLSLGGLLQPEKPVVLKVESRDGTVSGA
# Sequence of CYP2C9 (P11712 whole entry): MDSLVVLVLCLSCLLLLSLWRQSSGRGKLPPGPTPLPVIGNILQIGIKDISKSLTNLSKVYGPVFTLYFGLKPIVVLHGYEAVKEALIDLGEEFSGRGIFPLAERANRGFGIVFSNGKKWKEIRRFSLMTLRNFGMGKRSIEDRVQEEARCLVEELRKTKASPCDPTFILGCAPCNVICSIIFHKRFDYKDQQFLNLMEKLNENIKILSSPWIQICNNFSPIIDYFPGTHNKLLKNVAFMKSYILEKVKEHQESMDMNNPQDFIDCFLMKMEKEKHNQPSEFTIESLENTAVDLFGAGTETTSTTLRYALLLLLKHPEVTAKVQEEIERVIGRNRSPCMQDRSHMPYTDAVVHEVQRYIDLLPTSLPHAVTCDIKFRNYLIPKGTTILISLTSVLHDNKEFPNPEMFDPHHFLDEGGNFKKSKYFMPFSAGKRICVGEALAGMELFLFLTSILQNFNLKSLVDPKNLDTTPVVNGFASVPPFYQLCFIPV
# Sequence of CYP1A2 (P05177 whole entry): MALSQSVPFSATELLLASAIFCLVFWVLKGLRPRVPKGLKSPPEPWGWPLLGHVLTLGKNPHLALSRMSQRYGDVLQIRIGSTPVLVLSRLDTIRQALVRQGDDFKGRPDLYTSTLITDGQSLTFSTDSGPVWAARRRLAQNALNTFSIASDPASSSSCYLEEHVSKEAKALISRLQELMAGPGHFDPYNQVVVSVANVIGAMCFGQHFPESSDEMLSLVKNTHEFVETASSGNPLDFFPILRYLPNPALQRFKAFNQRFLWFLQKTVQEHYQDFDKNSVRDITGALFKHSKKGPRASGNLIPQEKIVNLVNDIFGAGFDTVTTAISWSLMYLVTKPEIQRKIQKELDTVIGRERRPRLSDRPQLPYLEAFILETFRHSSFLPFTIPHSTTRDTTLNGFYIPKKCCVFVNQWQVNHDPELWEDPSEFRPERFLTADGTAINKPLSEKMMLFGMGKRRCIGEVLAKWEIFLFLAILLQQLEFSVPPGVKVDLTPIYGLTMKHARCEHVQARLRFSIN
smiles,measurement,setting,value
"CC[C@@H]1SC2(CCN(C)CC2)NC1=O [AF267B, (S)-2-ethyl-8-methyl-1-thia-4,8-diaza-spiro[4.5]decan-3-one]",% of the compound found in the brain (Cmax brain/Cmax plasma),[1]; female,16%
same,% of the compound found in the brain (Cmax brain/Cmax plasma),[1]; male,25%
same,dose at which (muscarinic) effects are seen,[2],> 40 mg/kg
same,Aβ1-40-induced degradation of soluble β-catenin,β-catenin,prevented
same,% of the compound in free base form,[3],26.2%
same,"ECG (heart rate, P wave, P-Q, QRS, QT)","[4]; beagle dogs, oral, up to 13 weeks",no changes in the ECG
same,dose at which (muscarinic) effects are seen,[4]; dog,> 9 mg/kg
same,no-adverse-effect-level (NOAEL),"[4]; dog, po, up to 13 weeks",6 to 9 mg/kg/day
same,reduction of the release of Aβ-like fragments (3-4 Kda),Aβ / γ-secretase,approximately 50%
same,p3 fragment,"Aβ / γ-secretase; 1 mM, vs control",complete loss
same,Aβ with cholesterol lowering agent CDX,Aβ / γ-secretase; with CDX (5 mM),undetectable Aβ levels
same,binding to other receptors and enzymes,[5],no binding at all
same,Ki,[6],45.2 ± 10.8 µM
same,survival and morphology of hippocampal neurons,"rat hippocampal neurons; 0.5-50 μM, compound alone",does not affect the survival and morphology
same,neurites / dendritic shrinkage induced by Aβ1-40,rat hippocampal neurons; blocked by pirenzepine 10 nM,protected the neurons
"CC1=NCC2(CCN(C)CC2)S1 [AF150(S), 2,8-Dimethyl-1-thia-3,8-diaza-spiro[4.5]dec-2-ene]",inhibition of ApoE production,ApoE,to a lesser extent
"CC[C@@H]1SC2(CCNCC2)NC1=O [AF292, (S)-2-Ethyl-1-thia-4,8-diaza-spiro[4.5]decan-3-one]","PI turnover, agonist activity",human M5 receptor [7],"PI, AA: M5 mAChR - no effect as agonist"
same,"AA release, agonist activity",human M5 receptor [8],"inactive as an agonist; also recorded: PI, AA: M5 mAChR - no effect as agonist"
same,agonist activity at M2 mAChR,M2 mAChR,inactive as an agonist; also recorded: M2 mAChR - no effects as agonist
same,"binding to other receptors, channels and transporter",[9],no binding at all
same,contractile force,[10],no significant effect
same,contractile rate,[10]; vs vehicle group,tended to slightly reduce
same,P450 inhibition,CPY2D6,did not induce significant
same,P450 inhibition,CYP2C19,did not induce significant
same,P450 inhibition,CYP2C9,did not induce significant
same,P450 inhibition,CYP3A4,did not induce significant
same,P450 inhibition,CYP1A2,did not induce significant
same,"AA release, agonist activity",human M3 receptor,inactive as an agonist
